Active and inactive are the calls of the source. The rule behind the calls is not given here.
What was measured:
Rattus norvegicus [1] = experiment: Urinary glucose excretion in Wistar rat after intravenous administration (3 mg/kg); assay type: functional, Urine
Rattus norvegicus [2] = species on record: Rattus norvegicus; experiment: Na+ -glucose co-transporter (SGLT) inhibitory activity against [C14]-glucose transport in BBMV's of rat kidney at compound concentration of 10 uM
Rattus norvegicus [3] = species on record: Rattus norvegicus; experiment: Na+ -glucose co-transporter (SGLT) inhibitory activity against [C14]-glucose transport in BBMV's of rat kidney at compound concentration of 100 uM: Not active; assay type: functional
Rattus norvegicus [4] = species on record: Rattus norvegicus; experiment: Na+ -glucose co-transporter (SGLT) inhibitory activity against [C14]-glucose transport in BBMV's of rat kidney at compound concentration of 100 uM; assay type: functional

SMILES	Glucose (Rattus norvegicus [1]) [mg/day]	Inhibition (Rattus norvegicus [2]) [%]	inhibition (Rattus norvegicus [3])	Inhibition (Rattus norvegicus [4]) [%]
CCc1ccc(Cc2c(C(F)(F)F)n[nH]c2O[C@@H]2O[C@H](CO)[C@@H](O)[C@H](O)[C@H]2O)cc1	63	84		
CSc1ccc(Cc2c(C(F)(F)F)n[nH]c2O)cc1	0		inactive	
CCc1ccc(Cc2c(C(F)(F)F)n[nH]c2O[C@@H]2O[C@H](C(=O)O)[C@@H](O)[C@H](O)[C@H]2O)cc1	2.6			30

Source: ChEMBL document CHEMBL1136095, “Pyrazole-O-glucosides as novel Na(+)-glucose cotransporter (SGLT) inhibitors” (2003)
